6 compounds from ChEMBL document CHEMBL1201862, “PubChem BioAssay data set” (2004) can be followed below.

Usually AC50 stands for the concentration giving half of the maximal activity seen. By IC50 is commonly meant the concentration at which inhibition is half-maximal. One may read the EC50 as the concentration that produces a half-maximal response.

“And” between values parts separate entries of the source, which are not always exact repeats. Equal values may be shown once. The source made the active and inactive calls.

For experiment [1], the target named is T1, Replicative DNA helicase DnaB (Mycobacterium tuberculosis, UniProt P9WMR3).
T1 sequence (P9WMR3 whole entry): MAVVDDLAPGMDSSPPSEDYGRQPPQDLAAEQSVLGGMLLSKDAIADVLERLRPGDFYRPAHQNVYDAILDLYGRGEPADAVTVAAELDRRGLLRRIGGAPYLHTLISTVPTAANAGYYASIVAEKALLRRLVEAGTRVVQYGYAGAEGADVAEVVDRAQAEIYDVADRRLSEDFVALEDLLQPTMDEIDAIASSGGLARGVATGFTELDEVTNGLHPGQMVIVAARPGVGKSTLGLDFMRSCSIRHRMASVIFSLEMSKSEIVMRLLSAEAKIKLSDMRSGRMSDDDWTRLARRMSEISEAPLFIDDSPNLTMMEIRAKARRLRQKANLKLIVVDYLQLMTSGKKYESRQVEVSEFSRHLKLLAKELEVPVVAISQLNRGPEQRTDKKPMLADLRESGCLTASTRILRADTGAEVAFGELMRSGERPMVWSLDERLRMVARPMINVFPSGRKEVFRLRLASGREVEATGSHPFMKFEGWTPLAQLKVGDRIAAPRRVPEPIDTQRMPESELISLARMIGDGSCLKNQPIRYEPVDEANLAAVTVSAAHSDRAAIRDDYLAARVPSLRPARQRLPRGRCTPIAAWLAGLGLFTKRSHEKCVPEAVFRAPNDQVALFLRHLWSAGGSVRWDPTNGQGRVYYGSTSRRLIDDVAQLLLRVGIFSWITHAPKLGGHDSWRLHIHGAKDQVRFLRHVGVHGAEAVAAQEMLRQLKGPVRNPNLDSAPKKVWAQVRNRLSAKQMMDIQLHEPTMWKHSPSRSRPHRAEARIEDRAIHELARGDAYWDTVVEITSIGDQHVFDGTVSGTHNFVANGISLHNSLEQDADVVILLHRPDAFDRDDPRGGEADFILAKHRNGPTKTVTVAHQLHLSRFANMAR
The experiment can be described thus: DnaB intein splicing inhibitors, dose response, biochemical, cell-free fluorescence (AID 449749). In kind it is functional.

Experiment [2] deals with Serine/threonine-protein phosphatase (Homo sapiens, UniProt Q9BPW0). In words: PP5 phosphatase inhibitors, dose response, biochemical, fluorescence (AID 2395).
Experiment [3] deals with T2, Protein RecA (Mycobacterium tuberculosis, UniProt P9WHJ3).
T2 sequence (P9WHJ3 whole entry): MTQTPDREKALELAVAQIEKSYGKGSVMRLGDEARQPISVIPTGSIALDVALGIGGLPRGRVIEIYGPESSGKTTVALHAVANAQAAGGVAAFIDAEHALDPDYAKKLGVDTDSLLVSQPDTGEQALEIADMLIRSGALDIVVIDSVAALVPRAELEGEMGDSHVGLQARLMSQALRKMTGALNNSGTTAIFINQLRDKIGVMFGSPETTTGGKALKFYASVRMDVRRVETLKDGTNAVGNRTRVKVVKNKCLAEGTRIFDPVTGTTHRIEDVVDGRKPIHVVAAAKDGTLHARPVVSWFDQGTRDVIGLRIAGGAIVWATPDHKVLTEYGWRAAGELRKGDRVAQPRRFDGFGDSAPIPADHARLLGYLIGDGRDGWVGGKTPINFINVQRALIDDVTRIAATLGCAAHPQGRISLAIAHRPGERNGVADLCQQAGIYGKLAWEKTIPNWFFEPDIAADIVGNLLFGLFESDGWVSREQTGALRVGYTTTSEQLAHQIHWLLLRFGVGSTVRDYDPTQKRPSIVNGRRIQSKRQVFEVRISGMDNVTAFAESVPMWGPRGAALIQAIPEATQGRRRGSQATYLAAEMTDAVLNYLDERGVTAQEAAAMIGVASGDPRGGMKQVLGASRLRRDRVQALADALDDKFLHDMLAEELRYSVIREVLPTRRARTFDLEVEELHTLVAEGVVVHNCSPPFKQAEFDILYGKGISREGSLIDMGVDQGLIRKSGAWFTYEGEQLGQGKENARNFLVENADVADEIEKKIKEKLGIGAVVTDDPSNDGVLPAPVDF
In words: Fluorescence Cell-Free Homogeneous Dose Retest to Identify Inhibitors of RecA-Intein Splicing Activity. [Related pubchem assays (depositor defined):AID2097, AID2223, AID489010, AID492950]. The experiment is classed as functional.

Experiment [4] addresses Nonstructural protein 1 (Influenza A virus, UniProt Q194T2). The experiment is classed as functional, Influenza A virus (A/California/07/2009(H1N1)).
Experiment [5] addresses T3, Apoptotic protease-activating factor 1 (Homo sapiens, UniProt O14727).
T3 sequence (O14727 whole entry): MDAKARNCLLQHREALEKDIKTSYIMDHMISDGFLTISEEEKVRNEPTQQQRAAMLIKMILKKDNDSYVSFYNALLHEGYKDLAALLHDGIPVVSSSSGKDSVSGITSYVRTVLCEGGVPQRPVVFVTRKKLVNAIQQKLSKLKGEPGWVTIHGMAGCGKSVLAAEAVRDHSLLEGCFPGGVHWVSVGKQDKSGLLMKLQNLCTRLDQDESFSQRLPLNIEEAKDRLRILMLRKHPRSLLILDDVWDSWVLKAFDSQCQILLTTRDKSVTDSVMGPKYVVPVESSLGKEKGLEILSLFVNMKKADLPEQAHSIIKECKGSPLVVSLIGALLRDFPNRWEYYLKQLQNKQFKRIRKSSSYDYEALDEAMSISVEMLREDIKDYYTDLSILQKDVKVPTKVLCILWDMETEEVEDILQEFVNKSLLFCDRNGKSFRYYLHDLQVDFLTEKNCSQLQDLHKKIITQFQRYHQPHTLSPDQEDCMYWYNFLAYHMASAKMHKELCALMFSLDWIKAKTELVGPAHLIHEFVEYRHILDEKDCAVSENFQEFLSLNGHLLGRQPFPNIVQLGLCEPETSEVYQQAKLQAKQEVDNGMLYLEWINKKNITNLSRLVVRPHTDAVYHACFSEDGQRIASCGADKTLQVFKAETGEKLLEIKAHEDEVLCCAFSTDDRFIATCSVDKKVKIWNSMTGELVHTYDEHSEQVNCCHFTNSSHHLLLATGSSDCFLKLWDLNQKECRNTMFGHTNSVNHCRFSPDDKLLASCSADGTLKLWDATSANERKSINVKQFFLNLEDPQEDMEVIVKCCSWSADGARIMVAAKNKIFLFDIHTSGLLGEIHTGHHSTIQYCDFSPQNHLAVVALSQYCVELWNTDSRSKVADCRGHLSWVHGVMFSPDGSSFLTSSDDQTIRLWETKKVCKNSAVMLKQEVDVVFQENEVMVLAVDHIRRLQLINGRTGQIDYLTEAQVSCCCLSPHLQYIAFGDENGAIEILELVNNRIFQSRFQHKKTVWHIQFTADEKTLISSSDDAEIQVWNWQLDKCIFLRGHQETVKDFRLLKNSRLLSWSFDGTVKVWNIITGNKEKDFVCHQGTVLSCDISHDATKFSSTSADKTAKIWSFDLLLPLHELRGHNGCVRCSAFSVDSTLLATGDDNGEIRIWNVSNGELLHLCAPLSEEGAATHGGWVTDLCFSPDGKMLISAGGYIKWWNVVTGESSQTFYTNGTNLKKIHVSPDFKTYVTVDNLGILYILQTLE
The experiment is classed as functional.

For experiment [6], the target named is Serine/threonine-protein phosphatase PP1-alpha catalytic subunit (Homo sapiens, UniProt P62136). In words: PP1 phosphatase inhibitors, dose response, biochemical, fluorescence (AID 2394).
A short description of experiment [7]: Luminescent dose response cell-based high throughput screening assay for inhibitors of the Janus kinase 2 mutant JAK2V617F. [Related pubchem assays: 1446 (Primary screen.), 1521 (Confirmation assay.), 1486 (Counter screen.)]. The experiment is classed as functional. (Counterscreens check selectivity or assay interference.)
The nature of experiment [8]: HEp-2 cell cytotoxicity, dose response, cytotoxicity control for RSV inhibitor project, HTS (AID 2410). In kind it is functional. To be noted: human respiratory syncytial virus.
Experiment [9] is described as follows: microbe, parasite or virus in culture. Conditions: Mycobacterium tuberculosis. The experiment is classed as functional.
The target in experiment [10] is G-protein coupled receptor 183 (Homo sapiens, UniProt P32249). In words: SAR confirmation of small molecule antagonists of the EBI2 receptor via a luminescent beta-arrestin assa. The experiment is classed as functional.
Experiment [11] is described as follows: half-maximal inhibitory concentration for glucagon-like peptide-1 release, STC-1 cell line, dose-response (AID 1117345). The experiment is classed as functional, cell-based.
Experiment [12] deals with T4, Fibrinogen beta chain (Homo sapiens, UniProt P02675).
T4 sequence (P02675 whole entry): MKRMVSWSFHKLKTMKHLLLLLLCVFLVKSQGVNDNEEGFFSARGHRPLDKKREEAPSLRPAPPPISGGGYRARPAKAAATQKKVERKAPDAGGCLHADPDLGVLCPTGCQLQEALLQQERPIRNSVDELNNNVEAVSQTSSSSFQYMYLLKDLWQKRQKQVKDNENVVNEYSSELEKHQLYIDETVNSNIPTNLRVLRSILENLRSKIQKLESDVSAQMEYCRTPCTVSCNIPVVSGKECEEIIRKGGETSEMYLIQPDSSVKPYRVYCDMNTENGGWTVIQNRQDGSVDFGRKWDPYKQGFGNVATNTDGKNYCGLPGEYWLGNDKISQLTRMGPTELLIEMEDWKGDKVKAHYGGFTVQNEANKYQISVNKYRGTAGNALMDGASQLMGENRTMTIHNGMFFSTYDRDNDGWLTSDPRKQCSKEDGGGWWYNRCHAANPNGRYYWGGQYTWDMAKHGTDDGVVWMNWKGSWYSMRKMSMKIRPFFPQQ
In words: Fluorescence polarization-based biochemical high throughput dose response assay to identify inhibitors that disrupt the binding of a cyclic peptide (Tn6) to the fibrin proteolytic product D-Dimer and fragment E complex [DD(E )]. On the technique in general: Polarisation of emitted light reports the rotation of a fluorescent probe.

Experiment [13] is described as follows: Glucagon-like peptide 1 release potency, NCI-H716 cell line, dose-response, half-maximal inhibitory concentration (AID 1117344). The experiment is classed as functional, cell-based.
The nature of experiment [14]: cytotoxicity toward Colo320 cells – cell-based, CellTiter-Glo luminescence, IC50, dose response (AID 1117334). In kind it is functional. Conditions: COLO 320. A general note: ATP-based viability assays read luminescence as a measure of living cells.
Experiment [15] in a line: SNU-C1 cell viability reduction, dose response, CellTiter-Glo luminescence (AID 1117323). The experiment is classed as functional, cell-based.
Experiment [16] concerns the target T4, Fibrinogen beta chain. In words: Fluorescence polarization-based biochemical high throughput dose response assay to identify inhibitors that disrupt the binding of a cyclic peptide (Tn7) to the fibrin proteolytic product D-Dimer and fragment E complex [DD(E )].
Experiment [17] is described as follows: RKO cell viability reduction, dose response, CellTiter-Glo luminescence (AID 1117322). The experiment is classed as functional.
Experiment [18] is described as follows: CellTiter-Glo luminescent dose response of DLD-1 viability loss (AID 1117352). The experiment is classed as functional.
Experiment [19] in a line: Concentration-dependent survival of SW480 colon cancer line, luminescence detection with CellTiter-Glo, half-maximal inhibitory concentration (AID 1117338). In kind it is functional.
In experiment [20] the target is Cytochrome P450 2D6 (Homo sapiens, UniProt P10635).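 Also: CYP2D6 member of a cytochrome P450 panel assay.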
The nature of experiment [21]: human group III sPLA2 inhibitors, dose response, biochemical, QFRET, IC50 (AID 743457).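 Also: green fluorescence rise as the enzyme cleaves BODIPY PC-A2 in liposomes; potency for inhibition of the enzyme.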
Experiment [22] can be described thus: cytotoxicity toward HCT116 cells – cell-based, CellTiter-Glo luminescence, IC50, dose response (AID 1117332). Conditions: HCT-116. The experiment is classed as functional.
Experiment [23] can be described thus: Luminescence Cell-Based Dose Confirmation HTS to Identify Activators of 5'UTR Stem-Loop Driven Alpha-Synuclein mRNA Translation in H4 Neuroglioblastoma Cells. [Related pubchem assays: 1829 (Project Summary), 1814 (Primary HTS)]. The experiment is classed as functional.
The nature of experiment [24]: Luminescence Cell-Based Dose Response HTS to Identify Activators of Luciferase Translation or Activity in H4 […] Cells. [Related pubchem assays: 1829 (Project Summary), 1814 (Primary HTS)]. In kind it is functional.
For experiment [25], the system named is H4. The experiment can be described thus: Luminescence Cell-Based Dose Response HTS to Identify Activators of 5'UTR Stem-Loop Driven Prion Protein mRNA Translation in H4 Neuroglioblastoma Cells. [Related pubchem assays: 1829 (Project Summary), 1814 (Primary HTS)]. In kind it is functional. Conditions: Homo sapiens.

Chain of Serine/threonine-protein phosphatase PP1-alpha catalytic subunit (P62136 whole entry): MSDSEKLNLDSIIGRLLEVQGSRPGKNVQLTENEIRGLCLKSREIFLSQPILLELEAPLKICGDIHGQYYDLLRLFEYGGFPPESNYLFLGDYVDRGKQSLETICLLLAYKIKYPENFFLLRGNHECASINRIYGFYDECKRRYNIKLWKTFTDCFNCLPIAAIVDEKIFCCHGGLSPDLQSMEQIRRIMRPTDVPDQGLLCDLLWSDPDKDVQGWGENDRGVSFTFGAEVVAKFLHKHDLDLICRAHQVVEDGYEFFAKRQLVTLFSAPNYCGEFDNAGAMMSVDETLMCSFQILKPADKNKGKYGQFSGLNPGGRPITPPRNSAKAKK
Chain of G-protein coupled receptor 183 (P32249 whole entry): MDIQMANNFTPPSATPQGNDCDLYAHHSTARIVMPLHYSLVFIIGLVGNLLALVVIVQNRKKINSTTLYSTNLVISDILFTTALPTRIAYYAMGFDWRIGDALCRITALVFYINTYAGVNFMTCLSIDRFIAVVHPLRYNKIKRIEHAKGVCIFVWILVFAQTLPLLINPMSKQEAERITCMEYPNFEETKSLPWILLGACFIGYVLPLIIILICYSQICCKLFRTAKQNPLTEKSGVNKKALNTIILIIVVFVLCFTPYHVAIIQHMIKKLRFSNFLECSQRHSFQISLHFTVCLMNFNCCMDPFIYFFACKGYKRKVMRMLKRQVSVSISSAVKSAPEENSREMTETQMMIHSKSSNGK
Chain of Cytochrome P450 2D6 (P10635 whole entry): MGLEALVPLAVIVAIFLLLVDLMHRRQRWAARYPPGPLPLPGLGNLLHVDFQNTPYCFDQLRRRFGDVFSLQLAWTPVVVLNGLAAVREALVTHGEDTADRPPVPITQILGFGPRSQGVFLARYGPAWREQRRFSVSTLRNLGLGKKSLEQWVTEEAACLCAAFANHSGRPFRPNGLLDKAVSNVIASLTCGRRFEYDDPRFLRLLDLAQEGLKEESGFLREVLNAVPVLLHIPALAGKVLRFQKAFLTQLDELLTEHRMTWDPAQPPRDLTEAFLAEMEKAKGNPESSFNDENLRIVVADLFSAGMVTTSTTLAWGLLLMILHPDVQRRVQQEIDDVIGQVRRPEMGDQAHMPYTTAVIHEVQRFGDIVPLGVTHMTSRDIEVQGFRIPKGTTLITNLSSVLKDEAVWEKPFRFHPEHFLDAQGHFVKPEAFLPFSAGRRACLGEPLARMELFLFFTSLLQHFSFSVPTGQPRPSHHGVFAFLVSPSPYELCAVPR
Chain of Serine/threonine-protein phosphatase (Q9BPW0 whole entry): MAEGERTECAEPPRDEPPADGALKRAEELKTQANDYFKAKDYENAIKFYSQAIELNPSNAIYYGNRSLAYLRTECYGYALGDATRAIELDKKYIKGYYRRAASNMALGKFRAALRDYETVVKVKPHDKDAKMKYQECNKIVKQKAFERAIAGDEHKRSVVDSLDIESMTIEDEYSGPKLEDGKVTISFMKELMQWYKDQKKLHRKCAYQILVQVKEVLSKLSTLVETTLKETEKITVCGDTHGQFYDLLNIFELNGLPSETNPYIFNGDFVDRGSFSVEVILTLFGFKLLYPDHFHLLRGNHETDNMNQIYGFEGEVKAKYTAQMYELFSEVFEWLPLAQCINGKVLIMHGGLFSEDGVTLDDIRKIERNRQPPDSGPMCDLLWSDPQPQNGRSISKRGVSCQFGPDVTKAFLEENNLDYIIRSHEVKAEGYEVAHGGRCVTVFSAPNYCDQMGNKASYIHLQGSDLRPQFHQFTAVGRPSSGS
Chain of Nonstructural protein 1 (Q194T2 whole entry): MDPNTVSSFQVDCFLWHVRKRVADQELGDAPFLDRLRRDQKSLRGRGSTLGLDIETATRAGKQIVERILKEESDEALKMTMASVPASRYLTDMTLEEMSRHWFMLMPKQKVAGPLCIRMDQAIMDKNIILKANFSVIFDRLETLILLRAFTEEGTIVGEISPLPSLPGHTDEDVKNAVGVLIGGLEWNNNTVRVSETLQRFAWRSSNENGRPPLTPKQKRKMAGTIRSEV

In the case of `Cc1ccc(NC2=C(N3CCOCC3)C(=O)c3ccccc3C2=O)cc1`, the AC50 in experiment [1] was 10.7 µM (active). The IC50 is 20.9 µM (not active) in experiment [2], 7.74 µM (active) in [4], 19.4 µM (active) in [5] and > 67 µM (not active) in experiment [6]. Also, the EC50 in [3] was 15.7 µM (active).

Consider `O=C(CCl)NCc1cc(-c2ccc(Cl)cc2)no1`, for which the IC50 in experiment [7] is 1.23 µM (active). Besides, the CC50 in experiment [8] was 4.01 µM (active); in [9] it was 9.8 µM (active).

As to `Cc1cc(C)cc(CN2CCN(C(=O)/C=C/c3ccc(Br)cc3)CC2)c1`, in experiment [10], the IC50 is 0.0064 µM (active).

On to `O=C(c1ccc(Br)cc1)N1CCN(C(=O)c2ccccc2Cl)CC1`, for which the IC50 in experiment [10] was > 1 µM (inactive).

As to `C[n+]1cc2c3c(ccc2c2ccc4cc5c(cc4c21)OCO5)OCO3`, the IC50 in experiment [11] is > 40 µM (inactive); in [12] it was 24.2 µM (inactive); in experiment [13] it was > 40 µM (inactive); in experiment [14], 0.35 µM (active); in [15], 0.316 µM (active); in experiment [16], > 83.1 µM (inactive). Besides, the IC50 in [17] is 0.265 µM (active); in experiment [18] it was 0.576 µM (active); in experiment [19], 0.379 µM (active); in experiment [21], 51.8 µM (inactive); in experiment [22], 0.525 µM (active). In addition, the AC50 in experiment [20] was 31.6 µM (inconclusive) and 7.94 µM (inconclusive).

Take `O=C1C(c2ccccc2)=[N+]([O-])c2ccccc21`: the IC50 in experiment [2] was 10.3 µM (not active); in [4] it was 45.5 µM (active); in [5], 5.8 µM (active); in experiment [6], 2.67 µM (active). Moreover, the EC50 in [23] is 12.7 µM (active); in [24], 36.4 µM (active); in experiment [25], 20 µM (active).
